Experimental data taken from patent publication US9902736B2, “1-oxo/acylation-14-acylated oridonin derivative, preparation method therefor and application thereof” (HANGZHOU BENSHENG PHARMACEUTICAL CO., LTD., priority 2012, dated 2018).
Converted amounts (≈) assume the structure as drawn.

The compounds below were run on RPMI 8226 (assay: Multiple myeloma cell growth inhibition, MTT, 72 h). Conditions: Homo sapiens.
Format: cell-based
Procedure: Multiple myeloma cell lines: RPMI8226 (multiple myeloma), purchased from Fuxiang Bio-tech Co. Ltd., Shanghai, China.
(§1) 6000 well-growing cells were obtained and inoculated into wells of a 96-well cell culture plate. […] On the next day, the 1-oxo/acylated-14-acylated oridonin derivatives of different concentrations were added and mixed uniformly. The plate was placed in a carbon dioxide cell incubator (5% CO2) at 37° C. and incubated for 72 hours. Then the viable cell concentration was determined by MTT method.

| IC50 | IC90 | Compound |
| --- | --- | --- |
| 0.97 µg/mL (≈ 1.71 µM) | 3.58 µg/mL (≈ 6.33 µM) | C=C1C(=O)[C@]23[C@H](OC(=O)C4CCN(S(=O)(=O)CC)CC4)[C@H]1CC[C@H]2[C@@]12CO[C@@]3(O)[C@@H](O)[C@@H]1C(C)(C)CCC2=O [BS-OR-038] |

Each compound was assayed on NB4 (assay: Leukemia cell growth inhibition, MTT, 72 h). Conditions: Homo sapiens, NB-4; 72 h, MTT.
Format: cell-based, human
From the text: (§2) Leukemia cell lines: leukemia cell lines: K562/adr (drug-resistant, chronic myeloid leukemia, CML), NB4 (acute promyelocytic leukemia, AML), Kasumi-1 (acute myeloid leukemia M2 type, AML-M2), Jurkat (acute lymphoblastic leukemia, ALL), all of which were donated by Cancer Research Institute of Zhejiang University, China; and H9 (acute lymphoblastic leukemia, ALL), which was purchased from China Center for Type Culture Collection.
as §1, with “6000 well-growing leukemia cells were” for “6000 well-growing cells were”, “C. and was incubated for” for “C. and incubated for”

| IC50 | IC90 | Compound |
| --- | --- | --- |
| 0.44 µg/mL (≈ 0.778 µM) | 2.63 µg/mL (≈ 4.65 µM) | C=C1C(=O)[C@]23[C@H](OC(=O)C4CCN(S(=O)(=O)CC)CC4)[C@H]1CC[C@H]2[C@@]12CO[C@@]3(O)[C@@H](O)[C@@H]1C(C)(C)CCC2=O [BS-OR-038] |

The compounds below were run on H9 (assay: Leukemia cell growth inhibition, MTT, 72 h). Conditions: Homo sapiens, H9; 72 h, MTT.
Format: cell-based, human
From the text: as §2
as §1, with “6000 well-growing leukemia cells were” for “6000 well-growing cells were”, “C. and was incubated for” for “C. and incubated for”

| IC50 | IC90 | Compound |
| --- | --- | --- |
| 1.42 µg/mL (≈ 2.51 µM) | 3.01 µg/mL (≈ 5.32 µM) | C=C1C(=O)[C@]23[C@H](OC(=O)C4CCN(S(=O)(=O)CC)CC4)[C@H]1CC[C@H]2[C@@]12CO[C@@]3(O)[C@@H](O)[C@@H]1C(C)(C)CCC2=O [BS-OR-038] |

The compounds below were run on Jurkat (assay: Leukemia cell growth inhibition, MTT, 72 h). Conditions: Homo sapiens, Jurkat; 72 h, MTT.
Format: cell-based, human
From the text: as §2
as §1, with “6000 well-growing leukemia cells were” for “6000 well-growing cells were”, “C. and was incubated for” for “C. and incubated for”

| IC50 | IC90 | Compound |
| --- | --- | --- |
| 1.36 µg/mL (≈ 2.4 µM) | 5.91 µg/mL (≈ 10.4 µM) | C=C1C(=O)[C@]23[C@H](OC(=O)C4CCN(S(=O)(=O)CC)CC4)[C@H]1CC[C@H]2[C@@]12CO[C@@]3(O)[C@@H](O)[C@@H]1C(C)(C)CCC2=O [BS-OR-038] |

These compounds were tested on MGC-803 (assay: Solid tumor cell growth inhibition, MTT, 72 h). Conditions: Homo sapiens, MGC-803; 72 h, MTT.
Format: cell-based, human
Procedure: (§3) 6000 well-growing human solid tumor cells were obtained and inoculated into wells of a 96-well cell culture plate. The culture medium was DMEM High Glucose cell culture medium containing 10% fetal bovine serum. The plate was placed in a carbon dioxide cell incubator (5% CO2) at 37° C. and incubated for 24 hours. After added with 1-oxo/acylated-14-acylated oridonin derivatives of different concentration and mixed uniformly, the plate was placed in a carbon dioxide cell incubator (5% CO2) at 37° C. and incubated for 72 hours. Then the viable cell concentration was determined by MTT method.

| IC50 | IC90 | Compound |
| --- | --- | --- |
| 3.36 µg/mL (≈ 5.94 µM) | 9.55 µg/mL (≈ 16.9 µM) | C=C1C(=O)[C@]23[C@H](OC(=O)C4CCN(S(=O)(=O)CC)CC4)[C@H]1CC[C@H]2[C@@]12CO[C@@]3(O)[C@@H](O)[C@@H]1C(C)(C)CCC2=O [BS-OR-038] |

The compounds below were run on Hep-2 (assay: Solid tumor cell growth inhibition, MTT, 72 h). Conditions: Homo sapiens, HEp-2; 72 h, MTT.
Format: cell-based, human
Procedure: as §3

| IC50 | IC90 | Compound |
| --- | --- | --- |
| 4.34 µg/mL (≈ 7.67 µM) | 13.9 µg/mL (≈ 24.6 µM) | C=C1C(=O)[C@]23[C@H](OC(=O)C4CCN(S(=O)(=O)CC)CC4)[C@H]1CC[C@H]2[C@@]12CO[C@@]3(O)[C@@H](O)[C@@H]1C(C)(C)CCC2=O [BS-OR-038] |

What follows are compounds tested on Hela (assay: Solid tumor cell growth inhibition, MTT, 72 h). Conditions: Homo sapiens, HeLa; 72 h, MTT.
Format: cell-based, human
Procedure: as §3

| IC50 | IC90 | Compound |
| --- | --- | --- |
| 3.01 µg/mL (≈ 5.32 µM) | 6.16 µg/mL (≈ 10.9 µM) | C=C1C(=O)[C@]23[C@H](OC(=O)C4CCN(S(=O)(=O)CC)CC4)[C@H]1CC[C@H]2[C@@]12CO[C@@]3(O)[C@@H](O)[C@@H]1C(C)(C)CCC2=O [BS-OR-038] |

What follows are compounds tested on CNE (assay: Solid tumor cell growth inhibition, MTT, 72 h). Conditions: Homo sapiens, CNE; 72 h, MTT.
Format: cell-based, human
Procedure: as §3

| IC50 | IC90 | Compound |
| --- | --- | --- |
| 3.29 µg/mL (≈ 5.82 µM) | 10.9 µg/mL (≈ 19.2 µM) | C=C1C(=O)[C@]23[C@H](OC(=O)C4CCN(S(=O)(=O)CC)CC4)[C@H]1CC[C@H]2[C@@]12CO[C@@]3(O)[C@@H](O)[C@@H]1C(C)(C)CCC2=O [BS-OR-038] |

These compounds were tested on MG-63 (assay: Solid tumor cell growth inhibition, MTT, 72 h). Conditions: Homo sapiens.
Format: cell-based
Procedure: as §3

| IC50 | IC90 | Compound |
| --- | --- | --- |
| 0.95 µg/mL (≈ 1.68 µM) | 4.89 µg/mL (≈ 8.64 µM) | C=C1C(=O)[C@]23[C@H](OC(=O)C4CCN(S(=O)(=O)CC)CC4)[C@H]1CC[C@H]2[C@@]12CO[C@@]3(O)[C@@H](O)[C@@H]1C(C)(C)CCC2=O [BS-OR-038] |

What follows are compounds tested on PANC-1 (assay: Solid tumor cell growth inhibition, MTT, 72 h). Conditions: Homo sapiens.
Format: cell-based
Procedure: as §3

| IC50 | IC90 | Compound |
| --- | --- | --- |
| 4.7 µg/mL (≈ 8.31 µM) | 11.4 µg/mL (≈ 20.1 µM) | C=C1C(=O)[C@]23[C@H](OC(=O)C4CCN(S(=O)(=O)CC)CC4)[C@H]1CC[C@H]2[C@@]12CO[C@@]3(O)[C@@H](O)[C@@H]1C(C)(C)CCC2=O [BS-OR-038] |

Each compound was assayed on U87-MG (assay: Solid tumor cell growth inhibition, MTT, 72 h). Conditions: Homo sapiens, U-87 MG.
Format: cell-based
Procedure: as §3

| IC50 | IC90 | Compound |
| --- | --- | --- |
| 1.98 µg/mL (≈ 3.5 µM) | 6.78 µg/mL (≈ 12 µM) | C=C1C(=O)[C@]23[C@H](OC(=O)C4CCN(S(=O)(=O)CC)CC4)[C@H]1CC[C@H]2[C@@]12CO[C@@]3(O)[C@@H](O)[C@@H]1C(C)(C)CCC2=O [BS-OR-038] |

What follows are compounds tested on PC-3 (assay: Solid tumor cell growth inhibition, MTT, 72 h). Conditions: Homo sapiens.
Format: cell-based
Procedure: as §3

| IC50 | IC90 | Compound |
| --- | --- | --- |
| 5.3 µg/mL (≈ 9.37 µM) | 11.6 µg/mL (≈ 20.5 µM) | C=C1C(=O)[C@]23[C@H](OC(=O)C4CCN(S(=O)(=O)CC)CC4)[C@H]1CC[C@H]2[C@@]12CO[C@@]3(O)[C@@H](O)[C@@H]1C(C)(C)CCC2=O [BS-OR-038] |

What follows are compounds tested on Hep G2 (assay: Solid tumor cell growth inhibition, MTT, 72 h). Conditions: Homo sapiens, HepG2.
Format: cell-based
Procedure: as §3

| IC50 | IC90 | Compound |
| --- | --- | --- |
| 3.37 µg/mL (≈ 5.96 µM) | 13.2 µg/mL (≈ 23.3 µM) | C=C1C(=O)[C@]23[C@H](OC(=O)C4CCN(S(=O)(=O)CC)CC4)[C@H]1CC[C@H]2[C@@]12CO[C@@]3(O)[C@@H](O)[C@@H]1C(C)(C)CCC2=O [BS-OR-038] |

Each compound was assayed on CaEs-17 (assay: Solid tumor cell growth inhibition, MTT, 72 h). Conditions: Homo sapiens, CaEs17.
Format: cell-based
Procedure: as §3

| IC50 | IC90 | Compound |
| --- | --- | --- |
| 2.18 µg/mL (≈ 3.85 µM) | 7.64 µg/mL (≈ 13.5 µM) | C=C1C(=O)[C@]23[C@H](OC(=O)C4CCN(S(=O)(=O)CC)CC4)[C@H]1CC[C@H]2[C@@]12CO[C@@]3(O)[C@@H](O)[C@@H]1C(C)(C)CCC2=O [BS-OR-038] |

Each compound was assayed on RKO (assay: Solid tumor cell growth inhibition, MTT, 72 h). Conditions: Homo sapiens.
Format: cell-based
Procedure: as §3

| IC50 | IC90 | Compound |
| --- | --- | --- |
| 1.01 µg/mL (≈ 1.79 µM) | 1.93 µg/mL (≈ 3.41 µM) | C=C1C(=O)[C@]23[C@H](OC(=O)C4CCN(S(=O)(=O)CC)CC4)[C@H]1CC[C@H]2[C@@]12CO[C@@]3(O)[C@@H](O)[C@@H]1C(C)(C)CCC2=O [BS-OR-038] |

The compounds below were run on A549 (assay: Solid tumor cell growth inhibition, MTT, 72 h). Conditions: Homo sapiens.
Format: cell-based
Procedure: as §3

| IC50 | IC90 | Compound |
| --- | --- | --- |
| 6.1 µg/mL (≈ 10.8 µM) | 10.2 µg/mL (≈ 18 µM) | C=C1C(=O)[C@]23[C@H](OC(=O)C4CCN(S(=O)(=O)CC)CC4)[C@H]1CC[C@H]2[C@@]12CO[C@@]3(O)[C@@H](O)[C@@H]1C(C)(C)CCC2=O [BS-OR-038] |

The compounds below were run on SK-OV-3 (assay: Solid tumor cell growth inhibition, MTT, 72 h). Conditions: Homo sapiens, SK-OV-3; 72 h, MTT; read-out: IC50 SK-OV-3.
Format: cell-based
Procedure: as §3

| IC50 | Compound |
| --- | --- |
| 5.3 µg/mL (≈ 9.37 µM) | C=C1C(=O)[C@]23[C@H](OC(=O)C4CCN(S(=O)(=O)CC)CC4)[C@H]1CC[C@H]2[C@@]12CO[C@@]3(O)[C@@H](O)[C@@H]1C(C)(C)CCC2=O [BS-OR-038] |

Same assay, conditions: Homo sapiens, SK-OV-3; 72 h, MTT; read-out: IC90 SK-OV-3

| IC90 | Compound |
| --- | --- |
| 11.6 µg/mL (≈ 20.5 µM) | C=C1C(=O)[C@]23[C@H](OC(=O)C4CCN(S(=O)(=O)CC)CC4)[C@H]1CC[C@H]2[C@@]12CO[C@@]3(O)[C@@H](O)[C@@H]1C(C)(C)CCC2=O [BS-OR-038] |

The compounds below were run on Becap-37 (assay: Solid tumor cell growth inhibition, MTT, 72 h). Conditions: Homo sapiens.
Format: cell-based
Procedure: as §3

| IC50 | IC90 | Compound |
| --- | --- | --- |
| 3.04 µg/mL (≈ 5.37 µM) | 7.59 µg/mL (≈ 13.4 µM) | C=C1C(=O)[C@]23[C@H](OC(=O)C4CCN(S(=O)(=O)CC)CC4)[C@H]1CC[C@H]2[C@@]12CO[C@@]3(O)[C@@H](O)[C@@H]1C(C)(C)CCC2=O [BS-OR-038] |

The compounds below were run on K562/ADR (assay: Leukemia cell growth inhibition, MTT, 72 h). Conditions: Homo sapiens.
Format: cell-based
From the text: as §2
as §1, with “6000 well-growing leukemia cells were” for “6000 well-growing cells were”, “C. and was incubated for” for “C. and incubated for”

| IC50 | IC90 | Compound |
| --- | --- | --- |
| 1.43 µg/mL (≈ 2.53 µM) | 3.92 µg/mL (≈ 6.93 µM) | C=C1C(=O)[C@]23[C@H](OC(=O)C4CCN(S(=O)(=O)CC)CC4)[C@H]1CC[C@H]2[C@@]12CO[C@@]3(O)[C@@H](O)[C@@H]1C(C)(C)CCC2=O [BS-OR-038] |

Each compound was assayed on Kasumi-1 (assay: Leukemia cell growth inhibition, MTT, 72 h). Conditions: Homo sapiens.
Format: cell-based
From the text: as §2
as §1, with “6000 well-growing leukemia cells were” for “6000 well-growing cells were”, “C. and was incubated for” for “C. and incubated for”

| IC50 | IC90 | Compound |
| --- | --- | --- |
| 1.1 µg/mL (≈ 1.94 µM) | 3.95 µg/mL (≈ 6.98 µM) | C=C1C(=O)[C@]23[C@H](OC(=O)C4CCN(S(=O)(=O)CC)CC4)[C@H]1CC[C@H]2[C@@]12CO[C@@]3(O)[C@@H](O)[C@@H]1C(C)(C)CCC2=O [BS-OR-038] |
